Measurements as given in the kinase profiling compilation of Christmann-Franck et al. (2016).

Key:
Assay in all cases: radiometric filter-binding kinase assay, Kinase HotSpot
Conditions in all cases: compound 0.5 µM; ATP 10 µM
ADRBK1 (human) = ADRBK1 (human) (UniProt P25098)
ADRBK2 (human) = ADRBK2 (human) (UniProt P35626)
BLK (human) = BLK (human) (UniProt P51451)
CAMK1 (human) = CAMK1 (human) (UniProt Q14012)
CAMK1G (human) = CAMK1G (human) (UniProt Q96NX5)
CDK7 CCNH MNAT1 (human) = CDK7 CCNH MNAT1 (human) (UniProt P50613+P51948+P51946)
CDK9 CCNT1 (human) = CDK9 CCNT1 (human) (UniProt P50750+O60563)
CHEK1 (human) = CHEK1 (human) (UniProt O14757)
CLK2 (human) = CLK2 (human) (UniProt P49760)
CSNK1A1 (human) = CSNK1A1 (human) (UniProt P48729)
DCLK2 (human) = DCLK2 (human) (UniProt Q8N568)
DYRK1B (human) = DYRK1B (human) (UniProt Q9Y463)
DYRK2 (human) = DYRK2 (human) (UniProt Q92630)
DYRK4 (human) = DYRK4 (human) (UniProt Q9NR20)
EPHA2 (human) = EPHA2 (human) (UniProt P29317)
ERBB4 (human) = ERBB4 (human) (UniProt Q15303)
FES (human) = FES (human) (UniProt P07332)
FGFR2 (human) = FGFR2 (human) (UniProt P21802)
FLT1 (human) = FLT1 (human) (UniProt P17948)
IRAK4 (human) = IRAK4 (human) (UniProt Q9NWZ3)
JAK2 JH1 JH2 (human) = JAK2 JH1 JH2 (human) (UniProt O60674)
KDR (human) = KDR (human) (UniProt P35968)
MAPK13 (human) = MAPK13 (human) (UniProt O15264)
MAPK3 (human) = MAPK3 (human) (UniProt P27361)
MAPK9 (human) = MAPK9 (human) (UniProt P45984)
MLTK (human) = MLTK (human) (UniProt Q9NYL2)
MYLK (human) = MYLK (human) (UniProt Q15746)
NEK6 (human) = NEK6 (human) (UniProt Q9HC98)
NLK (human) = NLK (human) (UniProt Q9UBE8)
NTRK2 (human) = NTRK2 (human) (UniProt Q16620)
PASK (human) = PASK (human) (UniProt Q96RG2)
PKN1 (human) = PKN1 (human) (UniProt Q16512)
RET (human) = RET (human) (UniProt P07949)
RIPK2 (human) = RIPK2 (human) (UniProt O43353)
STK11 (human) = STK11 (human) (UniProt Q15831)
STK16 (human) = STK16 (human) (UniProt O75716)
SYK (human) = SYK (human) (UniProt P43405)
TAOK1 (human) = TAOK1 (human) (UniProt Q7L7X3)
TBK1 (human) = TBK1 (human) (UniProt Q9UHD2)
TGFBR1 (human) = TGFBR1 (human) (UniProt P36897)
TGFBR2 (human) = TGFBR2 (human) (UniProt P37173)
AKT3 (human) = AKT3 (human) (UniProt Q9Y243)

Sequence of RIPK2 (human) (O43353 whole entry, looked up): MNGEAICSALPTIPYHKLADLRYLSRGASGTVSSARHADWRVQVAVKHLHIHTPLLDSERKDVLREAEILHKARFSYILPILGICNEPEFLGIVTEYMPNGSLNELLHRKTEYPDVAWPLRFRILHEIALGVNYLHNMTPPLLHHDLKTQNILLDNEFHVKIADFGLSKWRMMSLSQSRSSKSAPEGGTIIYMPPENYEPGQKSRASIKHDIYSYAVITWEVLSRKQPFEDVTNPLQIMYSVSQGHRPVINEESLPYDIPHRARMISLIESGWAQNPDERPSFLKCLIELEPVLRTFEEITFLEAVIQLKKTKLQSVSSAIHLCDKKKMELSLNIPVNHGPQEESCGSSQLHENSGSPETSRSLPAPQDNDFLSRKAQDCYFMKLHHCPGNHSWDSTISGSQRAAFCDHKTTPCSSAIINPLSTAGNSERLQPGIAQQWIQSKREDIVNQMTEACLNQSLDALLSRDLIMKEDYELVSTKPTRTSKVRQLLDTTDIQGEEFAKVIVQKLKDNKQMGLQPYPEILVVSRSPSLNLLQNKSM
Sequence of DYRK1B (human) (Q9Y463 whole entry, looked up): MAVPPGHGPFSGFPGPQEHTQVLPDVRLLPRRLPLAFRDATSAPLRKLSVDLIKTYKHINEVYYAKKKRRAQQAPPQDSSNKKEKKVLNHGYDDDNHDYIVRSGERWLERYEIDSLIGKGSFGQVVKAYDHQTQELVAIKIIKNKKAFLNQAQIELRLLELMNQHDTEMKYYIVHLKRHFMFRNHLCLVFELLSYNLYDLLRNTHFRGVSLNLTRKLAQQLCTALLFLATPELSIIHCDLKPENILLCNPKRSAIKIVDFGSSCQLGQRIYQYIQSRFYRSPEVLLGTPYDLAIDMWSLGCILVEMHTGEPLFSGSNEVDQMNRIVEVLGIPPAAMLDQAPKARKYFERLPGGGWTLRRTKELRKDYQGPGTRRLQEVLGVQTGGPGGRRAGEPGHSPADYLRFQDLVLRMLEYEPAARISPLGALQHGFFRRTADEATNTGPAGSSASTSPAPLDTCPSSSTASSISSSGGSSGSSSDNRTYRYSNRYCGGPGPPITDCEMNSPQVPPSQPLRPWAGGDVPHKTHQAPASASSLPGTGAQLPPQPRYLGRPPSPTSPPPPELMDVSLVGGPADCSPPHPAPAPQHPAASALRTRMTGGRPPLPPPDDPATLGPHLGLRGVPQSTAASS
Sequence of IRAK4 (human) (Q9NWZ3 whole entry, looked up): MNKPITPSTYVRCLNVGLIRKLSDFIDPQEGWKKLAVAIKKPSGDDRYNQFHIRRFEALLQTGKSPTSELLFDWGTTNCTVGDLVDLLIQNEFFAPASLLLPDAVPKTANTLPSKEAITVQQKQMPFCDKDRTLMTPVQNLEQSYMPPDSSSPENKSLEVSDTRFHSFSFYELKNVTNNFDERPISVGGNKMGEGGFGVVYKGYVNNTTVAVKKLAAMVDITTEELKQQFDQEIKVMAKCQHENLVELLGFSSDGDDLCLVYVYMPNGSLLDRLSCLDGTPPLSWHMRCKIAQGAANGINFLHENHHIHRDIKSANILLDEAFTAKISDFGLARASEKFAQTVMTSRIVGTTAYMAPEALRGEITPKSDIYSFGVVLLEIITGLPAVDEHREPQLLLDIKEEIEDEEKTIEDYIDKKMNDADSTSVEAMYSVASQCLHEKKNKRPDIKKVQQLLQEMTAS
Sequence of FLT1 (human) (P17948 whole entry, looked up): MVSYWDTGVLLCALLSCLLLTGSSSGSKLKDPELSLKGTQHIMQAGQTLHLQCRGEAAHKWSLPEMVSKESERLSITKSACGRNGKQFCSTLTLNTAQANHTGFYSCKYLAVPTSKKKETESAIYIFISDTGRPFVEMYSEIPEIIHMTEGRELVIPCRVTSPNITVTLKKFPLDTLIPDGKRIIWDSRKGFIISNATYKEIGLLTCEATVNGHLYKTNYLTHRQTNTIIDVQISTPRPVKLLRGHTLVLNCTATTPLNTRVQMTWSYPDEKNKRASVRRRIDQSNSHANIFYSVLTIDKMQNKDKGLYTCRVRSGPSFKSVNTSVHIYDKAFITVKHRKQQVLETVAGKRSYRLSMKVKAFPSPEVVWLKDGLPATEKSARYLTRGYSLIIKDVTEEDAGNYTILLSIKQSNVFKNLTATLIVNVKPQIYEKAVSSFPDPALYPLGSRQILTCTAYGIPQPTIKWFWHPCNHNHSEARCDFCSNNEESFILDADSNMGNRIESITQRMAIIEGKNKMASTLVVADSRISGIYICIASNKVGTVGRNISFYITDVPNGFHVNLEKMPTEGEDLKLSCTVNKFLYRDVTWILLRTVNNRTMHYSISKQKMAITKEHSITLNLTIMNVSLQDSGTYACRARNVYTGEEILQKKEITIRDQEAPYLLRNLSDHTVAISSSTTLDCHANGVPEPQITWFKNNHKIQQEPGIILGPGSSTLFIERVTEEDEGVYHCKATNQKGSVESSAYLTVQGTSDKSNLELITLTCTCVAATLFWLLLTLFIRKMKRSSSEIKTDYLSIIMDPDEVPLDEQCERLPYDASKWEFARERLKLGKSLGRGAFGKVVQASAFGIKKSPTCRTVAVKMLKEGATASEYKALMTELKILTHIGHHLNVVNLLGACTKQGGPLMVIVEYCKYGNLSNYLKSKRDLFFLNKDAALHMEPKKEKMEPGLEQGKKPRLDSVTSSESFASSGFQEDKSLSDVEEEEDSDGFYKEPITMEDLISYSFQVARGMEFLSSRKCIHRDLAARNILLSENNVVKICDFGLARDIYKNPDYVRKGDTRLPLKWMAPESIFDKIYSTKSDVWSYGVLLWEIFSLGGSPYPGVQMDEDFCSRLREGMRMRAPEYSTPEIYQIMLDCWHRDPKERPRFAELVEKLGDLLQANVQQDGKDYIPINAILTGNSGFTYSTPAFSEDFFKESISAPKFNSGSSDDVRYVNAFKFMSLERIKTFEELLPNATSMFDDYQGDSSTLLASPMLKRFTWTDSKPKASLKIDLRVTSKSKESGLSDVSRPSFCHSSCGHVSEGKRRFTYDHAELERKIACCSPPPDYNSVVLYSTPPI
Sequence of FGFR2 (human) (P21802 whole entry, looked up): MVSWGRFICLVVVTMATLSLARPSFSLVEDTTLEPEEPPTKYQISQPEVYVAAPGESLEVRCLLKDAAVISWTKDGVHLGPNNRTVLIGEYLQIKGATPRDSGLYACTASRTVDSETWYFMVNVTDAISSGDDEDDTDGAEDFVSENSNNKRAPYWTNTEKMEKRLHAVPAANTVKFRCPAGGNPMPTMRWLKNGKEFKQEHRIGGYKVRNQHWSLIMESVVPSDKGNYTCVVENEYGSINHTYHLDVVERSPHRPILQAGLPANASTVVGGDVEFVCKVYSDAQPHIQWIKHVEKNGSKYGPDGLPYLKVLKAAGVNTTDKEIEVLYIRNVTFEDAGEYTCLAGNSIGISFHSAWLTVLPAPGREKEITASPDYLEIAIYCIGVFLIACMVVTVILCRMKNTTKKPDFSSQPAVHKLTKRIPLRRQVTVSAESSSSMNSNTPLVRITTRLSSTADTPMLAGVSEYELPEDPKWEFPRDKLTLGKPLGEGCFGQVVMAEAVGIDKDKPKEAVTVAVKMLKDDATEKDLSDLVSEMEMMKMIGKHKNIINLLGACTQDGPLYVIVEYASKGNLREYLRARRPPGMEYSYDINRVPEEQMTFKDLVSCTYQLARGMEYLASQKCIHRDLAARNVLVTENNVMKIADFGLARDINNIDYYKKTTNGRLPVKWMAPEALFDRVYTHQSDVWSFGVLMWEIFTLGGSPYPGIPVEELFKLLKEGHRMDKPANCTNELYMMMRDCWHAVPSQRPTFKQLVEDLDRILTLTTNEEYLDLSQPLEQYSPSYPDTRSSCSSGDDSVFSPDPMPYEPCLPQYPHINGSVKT
Sequence of CSNK1A1 (human) (P48729 whole entry, looked up): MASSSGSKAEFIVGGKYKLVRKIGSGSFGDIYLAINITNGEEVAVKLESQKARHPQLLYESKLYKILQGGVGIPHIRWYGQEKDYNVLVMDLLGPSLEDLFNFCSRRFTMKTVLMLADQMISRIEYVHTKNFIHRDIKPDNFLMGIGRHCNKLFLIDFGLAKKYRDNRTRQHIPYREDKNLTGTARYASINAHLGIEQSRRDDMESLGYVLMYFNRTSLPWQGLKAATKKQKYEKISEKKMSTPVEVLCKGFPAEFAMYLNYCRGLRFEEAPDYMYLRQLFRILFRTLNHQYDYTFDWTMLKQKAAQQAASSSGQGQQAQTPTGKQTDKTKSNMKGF
Sequence of CLK2 (human) (P49760 whole entry, looked up): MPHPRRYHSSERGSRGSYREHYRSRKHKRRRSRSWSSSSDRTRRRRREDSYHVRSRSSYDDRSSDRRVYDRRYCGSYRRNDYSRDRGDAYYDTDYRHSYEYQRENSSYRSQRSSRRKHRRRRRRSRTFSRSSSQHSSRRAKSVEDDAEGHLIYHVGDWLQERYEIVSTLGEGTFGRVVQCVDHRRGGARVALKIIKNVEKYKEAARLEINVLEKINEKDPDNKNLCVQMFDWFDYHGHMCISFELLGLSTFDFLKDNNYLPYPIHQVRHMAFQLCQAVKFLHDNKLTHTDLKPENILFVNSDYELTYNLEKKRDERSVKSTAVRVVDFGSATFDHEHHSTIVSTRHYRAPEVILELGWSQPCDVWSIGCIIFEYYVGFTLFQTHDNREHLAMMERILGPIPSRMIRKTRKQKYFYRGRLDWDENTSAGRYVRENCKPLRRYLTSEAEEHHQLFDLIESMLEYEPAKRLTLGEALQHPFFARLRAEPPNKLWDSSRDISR
Sequence of NEK6 (human) (Q9HC98 whole entry, looked up): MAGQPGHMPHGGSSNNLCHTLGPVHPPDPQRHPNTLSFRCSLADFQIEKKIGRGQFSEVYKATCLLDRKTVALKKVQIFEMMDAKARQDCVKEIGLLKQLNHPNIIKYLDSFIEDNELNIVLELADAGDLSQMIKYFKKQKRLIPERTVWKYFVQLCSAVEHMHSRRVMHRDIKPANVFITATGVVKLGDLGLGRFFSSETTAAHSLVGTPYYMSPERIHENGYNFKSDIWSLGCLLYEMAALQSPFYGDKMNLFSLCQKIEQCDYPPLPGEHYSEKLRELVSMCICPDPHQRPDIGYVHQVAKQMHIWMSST

CC(C)c1nn(-c2c(Cl)cccc2Cl)c2nc(Cc3ccc(OCCO)cc3)nc(O)c12
residual activity (ADRBK1 (human)): 94.8%
residual activity (ADRBK2 (human)): 87.9%
residual activity (BLK (human)): 98.8%
residual activity (CAMK1 (human)): 85.1%
residual activity (CAMK1G (human)): 100%
residual activity (CDK7 CCNH MNAT1 (human)): 60.3%
residual activity (CDK9 CCNT1 (human)): 22.7%
residual activity (CHEK1 (human)): 96.2%
residual activity (CLK2 (human)): 44%
residual activity (CSNK1A1 (human)): 99%
residual activity (DCLK2 (human)): 95.9%
residual activity (DYRK1B (human)): 99.9%
residual activity (DYRK2 (human)): 100%
residual activity (DYRK4 (human)): 96.7%
residual activity (EPHA2 (human)): 100%
residual activity (ERBB4 (human)): 101%
residual activity (FES (human)): 97.1%
residual activity (FGFR2 (human)): 97.5%
residual activity (FLT1 (human)): 87.2%
residual activity (IRAK4 (human)): 112%
residual activity (JAK2 JH1 JH2 (human)): 98.3%
residual activity (KDR (human)): 105%
residual activity (MAPK13 (human)): 104%
residual activity (MAPK3 (human)): 101%
residual activity (MAPK9 (human)): 96.5%
residual activity (MLTK (human)): 94.4%
residual activity (MYLK (human)): 98.3%
residual activity (NEK6 (human)): 105%
residual activity (NLK (human)): 97.6%
residual activity (NTRK2 (human)): 101%
residual activity (PASK (human)): 95.7%
residual activity (PKN1 (human)): 97%
residual activity (RET (human)): 97.5%
residual activity (RIPK2 (human)): 89.3%
residual activity (STK11 (human)): 47.7%
residual activity (STK16 (human)): 83.8%
residual activity (SYK (human)): 98.6%
residual activity (TAOK1 (human)): 72.1%
residual activity (TBK1 (human)): 97.7%
residual activity (TGFBR1 (human)): 98%
residual activity (TGFBR2 (human)): 74.3%

CC(C)[C@H](CO)Nc1nc(Nc2cc(N)cc(Cl)c2)c2ncn(C(C)C)c2n1
residual activity (ADRBK1 (human)): 83%
residual activity (ADRBK2 (human)): 97.1%
residual activity (BLK (human)): 79.6%
residual activity (CAMK1 (human)): 95.3%
residual activity (CAMK1G (human)): 105%
residual activity (CDK7 CCNH MNAT1 (human)): 54.7%
residual activity (CHEK1 (human)): 96.2%
residual activity (CLK2 (human)): 17.7%
residual activity (CSNK1A1 (human)): 75.5%
residual activity (DCLK2 (human)): 105%
residual activity (DYRK1B (human)): 38.3%
residual activity (DYRK2 (human)): 93.2%
residual activity (DYRK4 (human)): 91.6%
residual activity (EPHA2 (human)): 67.5%
residual activity (ERBB4 (human)): 131%
residual activity (FES (human)): 69.2%
residual activity (FGFR2 (human)): 97.3%
residual activity (FLT1 (human)): 97.5%
residual activity (IRAK4 (human)): 86.8%
residual activity (JAK2 JH1 JH2 (human)): 100%
residual activity (KDR (human)): 101%
residual activity (MAPK13 (human)): 101%
residual activity (MAPK3 (human)): 106%
residual activity (MAPK9 (human)): 99.8%
residual activity (MLTK (human)): 92.3%
residual activity (MYLK (human)): 81.3%
residual activity (NEK6 (human)): 111%
residual activity (NLK (human)): 93.9%
residual activity (NTRK2 (human)): 3.04%
residual activity (PASK (human)): 106%
residual activity (PKN1 (human)): 93.3%
residual activity (RET (human)): 61.6%
residual activity (RIPK2 (human)): 87.7%
residual activity (STK11 (human)): 60.3%
residual activity (STK16 (human)): 74%
residual activity (SYK (human)): 81.1%
residual activity (TAOK1 (human)): 79.9%
residual activity (TBK1 (human)): 86.6%
residual activity (TGFBR1 (human)): 103%
residual activity (TGFBR2 (human)): 93.5%

CN([C@@H](Cc1ccc(OS(=O)(=O)c2cccc3cnccc23)cc1)C(=O)N1CCN(c2ccccc2)CC1)S(=O)(=O)c1cccc2cnccc12
residual activity (ADRBK1 (human)): 97.5%
residual activity (ADRBK2 (human)): 113%
residual activity (AKT3 (human)): 104%
residual activity (BLK (human)): 102%
residual activity (CAMK1 (human)): 105%
residual activity (CAMK1G (human)): 93.6%
residual activity (CDK7 CCNH MNAT1 (human)): 99.4%
residual activity (CDK9 CCNT1 (human)): 100%
residual activity (CHEK1 (human)): 99.5%
residual activity (CLK2 (human)): 93%
residual activity (CSNK1A1 (human)): 99%
residual activity (DCLK2 (human)): 94.1%
residual activity (DYRK1B (human)): 101%
residual activity (DYRK2 (human)): 97.7%
residual activity (DYRK4 (human)): 97.8%
residual activity (EPHA2 (human)): 101%
residual activity (ERBB4 (human)): 103%
residual activity (FES (human)): 97.7%
residual activity (FGFR2 (human)): 98.1%
residual activity (FLT1 (human)): 86.5%
residual activity (IRAK4 (human)): 92.1%
residual activity (JAK2 JH1 JH2 (human)): 96.6%
residual activity (KDR (human)): 100%
residual activity (MAPK13 (human)): 102%
residual activity (MAPK3 (human)): 90.6%
residual activity (MAPK9 (human)): 85.6%
residual activity (MLTK (human)): 103%
residual activity (MYLK (human)): 98.2%
residual activity (NEK6 (human)): 101%
residual activity (NLK (human)): 106%
residual activity (NTRK2 (human)): 103%
residual activity (PASK (human)): 103%
residual activity (PKN1 (human)): 105%
residual activity (RET (human)): 105%
residual activity (RIPK2 (human)): 89.4%
residual activity (STK11 (human)): 99%
residual activity (STK16 (human)): 104%
residual activity (SYK (human)): 98.7%
residual activity (TAOK1 (human)): 98.7%
residual activity (TBK1 (human)): 101%
residual activity (TGFBR2 (human)): 101%
